A short description of data set [1]: Accelerated stability test of the crystal form A of the compound of formula (II-1). It counts as physicochemical. Conditions: long-term placement conditions.
Data set [2] is described as follows: Pharmacokinetic study of the crystal form A of the compound of formula (II-1) in SD rats. It counts as in vivo. The protocol: Experimental Purpose: To Study the Pharmacokinetics of the Compounds in SD Rats
Experimental Materials: SD Rats (12, Half Male and Half Female)
Experimental procedure: The pharmacokinetic characteristics of the compounds were tested in rodents after intravenous (IV) and oral (PO) administration using standard protocols. The candidate compounds were prepared into 0.5 mg/mL and 1 mg/mL clarified solutions and administrated to rats for single intravenous injection and oral administration. The solvent for both intravenous and oral administration was 5% DMSO/95% (10% hydroxypropyl β-cyclodextrin) aqueous solution. 12 SD rats were used in this project, and 6 rats (half male and half female) were administered intravenously at a dose of 1 mg/kg and plasma samples were collected at 0.0833, 0.25, 0.5, 1, 2, 4, 8, 12, and 24 h after administration, and the other 6 rats (half male and half female) were administered orally by gavage at a dose of 10 mg/kg and plasma samples were collected at 0.25, 0.5, 1, 2, 4, 8, 12 and 24 h after administration. 15 μL of plasma sample was added to a 96-well plate, and 300 μL of internal standard working solution (MeOH (containing 1.00 ng/mL Verapamil and 0.1% formic acid (FA)): ACN (v:v, 50:50) solution) was added to precipitate the proteins, the 96-well plate was shaken for 15 min, followed by centrifugation at 4° C., 3220 g for 15 min. 150 μL of supernatant was placed in a new 96-well plate with 150 μL of aqueous solution containing 0.1% formic acid (FA) and shaken for 10 min, and then centrifuged at 4° C., 3220 g for 5 min. The samples were directly injected, and the plasma drug concentration was quantitatively analyzed by LC-MS/MS analysis method, and pharmacokinetic parameters were calculated, such as peak concentration (Cmax), clearance rate (CL), half-life (T1/2), […] (Vdss), area under the drug-time curve (AUC0-last), bioavailability (F), etc.

As to `COc1cccc(C(CN)NC(=O)c2cc(-c3ccc4[nH]nc(C)c4c3)ccn2)c1.Cl.Cl` (centres unmarked), the “stability in accelerated test (conclusion in words)” value in data set [1] is reported as “stable”. Moreover, in data set [2] (SD rats, IV 1 mg/kg), the “Clearance rate CL” value is 22.4 mL/min/kg, the “Half-life T1/2 (IV)” value is reported as 4.93 h and the “Tissue distribution Vdss” value was 7.39 L/kg. Besides, the “Bioavailability F” value in data set [2] (SD rats, IV 1 mg/kg, PO 10 mg/kg) is 17.8%. Further, the “Area under drug-time curve AUC0-last PO” value in data set [2] (SD rats, PO 10 mg/kg) stood at 3.69 µM·h. Further, the Cmax in data set [2] (SD rats, half male and half female, PO 10 mg/kg, read-out: Peak concentration Cmax) is 519 nM. Further, the “pharmacokinetic properties (conclusion in words)” value in data set [2] (rats) was “good pharmacokinetic properties”.

Source of the values: patent publication US11702400B2, “Salt types, crystal forms, and preparation methods for benzopyrazole compounds as RHO kinase inhibitors” (MEDSHINE DISCOVERY INC., priority 2019, dated 2023).
